Measured values taken from US8853234B2, “Quinolone analogs and methods related thereto” (Senhwa Biosciences, Inc., priority 2007, dated 2014).
Where two headings read alike, the source gives them in different places.

Assays:
[1] = tested on: a variety of cell types that are representative of different cancers; test: Alamar Blue cell viability assay, variety of cell types representative of different cancers (Tables 12-14); format: cell-based; conditions: Homo sapiens
Procedure: A representative cell-proliferation assay protocol using Alamar Blue dye (stored at 4° C., use 20 ul per well) is described hereafter.
96-Well Plate Setup and Compound Treatment
a. Split and trypsinize cells.
b. Count cells using hemocytometer.
c. Plate 4,000-5,000 cells per well in 100 μl of medium and seed into a 96-well plate according to the following plate layout. Add cell culture medium only to wells B10 to B12. Wells B1 to B9 have cells but no compound added.
d. Add 100 μl of 2× drug dilution to each well in a concentration shown in the plate layout above. At the same time, add 100 μl of media into the control wells (wells B10 to B12). Total volume is 200 μl/well.
e. Incubate four (4) days at 37° C., 5% CO2 in a humidified incubator.
f. Add 20 μl Alamar Blue reagent to each well.
g. Incubate for four (4) hours at 37° C., 5% CO2 in a humidified incubator.
h. Record fluorescence at an excitation wavelength of 544 nm and emission wavelength of 590 nm using a microplate reader.
In the assays, cells are cultured with a test compound for approximately four days, the dye then is added to the cells and fluorescence of […] dye is detected after approximately four hours. Different types of cells can be utilized in the assays (e.g., HCT-116 human colorectal carcinoma cells, PC-3 human prostatic cancer cells and MiaPaca human pancreatic carcinoma cells). Anti-proliferative effects of representative compounds are provided hereafter.
(§1) Inhibitory activity on cell proliferation of Compounds A1, A2 and A3 was determined using an Alamar Blue cell viability assay (e.g., Example 39 herein) using a variety of cell types that are representative of different cancers Inhibition values (IC50) are presented in micromolar concentrations in the following table (Table 12).
as §1, with “representative compounds of the invention” for “Compounds A1, A2 and A3”, “Table 13 and Table 14.” for “the following table (Table 12).”

[2] = tested on: rDNA; test: Quantitative PCR (QPCR) assay, rRNA inhibition (rDNA); format: cell-based; parameters: Selectivity: reference not given here; conditions: for Selectivity: not defined in the patent; for IC50: rRNA inhibition from quantitative PCR assay
Text: In a specific assay embodiment, provided herein is a method for identifying a molecule that modulates ribosomal RNA (rRNA) synthesis, which comprises: contacting cells with a test molecule of Formula (I), (II), (III), (IV), (V), (VI), (VI′), (VII), or (VIII), contacting a ribosomal nucleotide sequence with one or more primers that amplify a portion thereof and a labeled probe that hybridizes to the amplification product, and detecting the amount of the amplification product by hybridization of the labeled probe, whereby a test molecule that reduces or increases the amount of amplification product is identified as a molecule that modulates rRNA synthesis. The labeled probe in some embodiments is added after the primers are added and the rRNA is amplified, and in certain embodiments, the labeled probe and the primers are added at the same time. The portion of ribosomal nucleotide sequence amplified sometimes is at the 5′ end of rDNA.
Real-time quantitative PCR (QPCR) method may be used to detect the changes of the target c-myc and the endogenous reference GAPDH gene copies in the same tube. Generally, cells (15,000 cells/well) are seeded on 96 well flat bottom plates (Corning, N.Y.) and incubated under normal growth conditions for overnight. The next day, the culture medium is exchanged for that containing anticancer drugs at various concentrations and incubated for 4 hrs in a humidified atmosphere of 5% CO2 at 37° C. Total RNA (tRNA) is extracted using the RNeasy 96 Kit (QIAGEN, CA). The concentration of the tRNA is determined by the RiboGreen RNA Quantitation Reagent (Molecular Probes, OR).
A reverse-transcription (RT) reaction may be conducted using 50 ng of tRNA from each well in a 25 μl reaction containing 1× TaqMan RT buffer, 2.5 uM random hexamers, 5.5 mM MgCl2, 0.5 mM each deoxynucleoside triphosphate (dNTP), 30 U MultiScribe Reverse Transcriptase, and 10 U RNase inhibitor. RT reactions are incubated for 10 min at 25° C., reverse-transcribed for 30 min at 48° C., inactivated for 5 min at 95° C., and placed at 4° C. All RT reagents may be purchased from Applied Biosystems, CA.
Real-Time QPCR reaction may be performed in a 50 μl reaction containing the 5 μl of cDNA, 1× Universal PCR Master Mix, 1× c-myc Pre-Developed Primers and Probe set, and 0.8×GAPDH Pre-Developed Primers and Probe set. Because of the relative abundance of GAPDH gene in Hela, GAPDH primers and probe concentration may be adjusted to get accurate threshold cycles (CT) for both genes in the same tube. The threshold cycle (CT) indicates the fractional cycle number at which the amount of amplified target reaches a fixed threshold. By doing so, the GAPDH amplification is stopped before it can limit the common reactants available for amplification of the c-myc. The ΔRn value represents the normalized reporter signal minus the baseline signal. ΔRn increases during PCR as amplicon copy number increases until the reaction approaches a plateau.
The c-myc probe is labeled with 6FAM™ dye-MGB and the GAPDH probe is labeled with VIC™ dye-MTB. Preincubation is performed for 2 min at 50° C. to activate AmpErase UNG enzyme and then for 10 min at 95° C. to activate AmpliTaq DNA Polymerase. DNA is amplified for 40 cycles of 15 sec at 95° C. and 1 min at 60° C. Human c-myc and GAPDH cDNA are amplified, detected, and quantitated in real time using the ABI Prism 7000 Sequence Detection system (Applied Biosystems, CA), which is set to detect both 6-FAM and VIC reporter dyes simultaneously.
The data may be analyzed using the ABI PRISM Sequence Detection System and Microsoft Excel. Relative quantitation is done using the standard curve and comparative CT method at the same time, and both methods gave equivalent results. The cycle at which the amplification plot crosses the CT is known to accurately reflect relative mRNA values. (See, Heid, et al., Genome Res. (1996) 6:986-994; Gibson, et al., Genome Res. (1996) 6:995-1001). […]

[3] = Cassette dosing oral pharmacokinetics in ICR mice; format: in vivo; conditions: ICR (IcrTac:ICR), mouse; cassette oral dose 25 mg/kg, female ICR mice, plasma, 0-8 h, none in table
Procedure: A cassette dosing procedure was utilized to determine pharmaceutical properties of compounds disclosed herein. In this procedure, compounds are selected for each cassette (i.e., cocktail) on the basis that mass spectrometric signals for each compound will not interfere with one another upon mass spectrometric analysis (e.g., will not overlap). The concentration of each compound in the dosing cassette often is about 20 mg/mL to achieve an oral dose level of 25 mg/kg in ICR mice. Aspects of the cassette dosing procedure are described hereafter.
Prepare 0.5 mL of 20 mg/mL dosing solution (in PBS or formulation vehicle) of 12 test compounds. Dilute a dosing solution 20 fold by transferring 10 μL of the stock solution into 190 μL acetonitrile containing 0.1% formic acid to achieve a final concentration of 1 mg/mL. Dilute further a 1 mg/mL solution 1,000 fold by transferring 1 μL of the stock solution into 999 μL acetonitrile containing 0.1% formic acid to achieve a final concentration of 1 μg/mL. Use the 1 μg/mL solution for mass spectrometric method development based on direct infusion. Determine parent/daughter mass spectra of each compound using multiple reaction monitoring (MRM). Compare parent/daughter mass spectra of each compound to assure no cross-reaction interference during LC-MS/MS measurements. Based on MRM mass spectra determine the composition of all cassettes.
Mix 250 μL of four prepared dosing solutions and an oral PK internal standard (20 mg/mL each) according to cassette design to achieve a final concentration of 4 mg/mL. Vortex cassettes rigorously and ultra-sonicate to obtain a clear solution or homogeneous suspension. Use the cassette solutions to dose animals by oral route of administration at 25 mg/kg.
All in vivo experiments follow protocols approved by the Animal Use and Care Committee. Female ICR mice (IcrTac:ICR), 8-10 weeks of age are obtained from Taconic (Hudson, N.Y.). Mice are housed on a 12 h/12 h light/dark cycle with ad libitum access to water and food. After a minimum two week acclimation period, the mice are randomized into groups with a minimum group size of four. The animals used for pharmacokinetic studies have a body-weight range of 25-35 g. A 25 mg/kg (4 mg/ml) dose of a cassette described in Example 1 is orally administered to mice that have been fasted overnight.
After compound administration, serial blood samples are collected via retro-orbital puncture with a capillary tube at various time points (15, 30 minutes and 1, 2, 4, 6 and 8 hours). The samples are transferred to a heparinized 0.5 mL microcentrifuge tube and placed on ice. Plasma is separated by centrifugation and samples are stored at −80° C. until assay.
Dilute a cassette dosing solution (4 mg/mL) four fold by transferring 25 μL of the stock solution into 75 μL of 50% acetonitrile containing 0.1% formic acid to achieve the concentration of 1 mg/mL. Dilute this stock solution further by serial dilutions to make 0.01, 0.1, 1 and 5 μg/mL working standard solutions.
Prepare 500 mL of 0.5 μg/mL solution of bioanalytical internal standard using 100% acetonitrile with 0.1% formic acid. Store the quenching solution in a tightly sealed bottle at 4° C.
Transfer 15 μL of blank mouse plasma to a 96 well plate and precipitate plasma proteins by pipetting of 120 μL of quenching solution to all plasma aliquots. Cover the plate with a matching plate mat and mix well for 30-60 seconds using a vertical multi-tube shaker.
Add 15 μL of the working standard solution of corresponding cassette to quenched plasma and vortex the plate for an additional 30-60 seconds. Then, centrifuge the plate at 4,000 rpm for 10 minutes at 4° C. Without disturbing the plasma protein pellet, transfer 120 μL of the supernatant to a new 96 well plate and dry the sample under nitrogen using a TurboVap® plate evaporator (Caliper Life Sciences; Hopkinton, Mass.). Reconstitute dried residues with 120 μL 20% acetonitrile containing 0.1% formic acid. […]

[4] = HCT-116, HCT-116 cells, Table 13, read-out: AB: HCT-116 (IC50)
[5] = K562, K-562 cells, Table 13, read-out: AB: K-562 (IC50)
[6] = MV4-11, MV-4-11 cells, Table 13, read-out: AB: MV-4-11 (IC50)
[7] = PC-3, PC3 cells, Table 13, read-out: AB: PC3 (IC50)
[8] = K562, K-562 cells, Table 14, read-out: AB: K-562 (IC50)
[9] = MIA PaCa-2, MiaPaCa cells, Table 14, read-out: AB: MiaPaCa (IC50)
[10] = MV4-11, MV-4-11 cells, Table 14, read-out: AB: MV-4-11 (IC50)
[11] = PC-3, PC3 cells, Table 14, read-out: AB: PC3 (IC50)
[12] = THP-1, THP-1 cells, Table 14, read-out: AB: THP-1 (IC50)

Row | Compound | IC50 [1, 4] [nM] | IC50 [1, 7] [nM] | IC50 [1, 8] [nM] | IC50 [1, 9] [nM] | IC50 [1, 10] [nM] | IC50 [1, 11] [nM] | IC50 [1, 12] [nM] | also measured
1 | O=C(NC1CC1)c1c(=O)c2ccc(NCC(O)c3ccccc3)nc2n2c1sc1ccccc12 (stereo not shown) | > 10000 | > 10000 |  |  |  |  |  | IC50 [1, 5]: > 10000 nM; IC50 [1, 6]: > 10000 nM
2 | Cc1cnc(CNC(=O)c2c(=O)c3ccc(N4CCCNCC4)nc3n3c2sc2ccccc23)cn1 |  |  | 101 | 637 | 84 |  |  | 
3 | CN1CCN(NC(=O)c2c(=O)c3cc(F)c(N4CCOCC4)nc3n3c2sc2ccccc23)CC1 |  |  |  |  |  |  |  | Selectivity [2]: 89; IC50 [2]: 102 nM; AUC(0-t) [3]: 4360 ng·h/mL
4 | O=C(NCc1ccccn1)c1c(=O)c2cc(F)c(N3CCOCC3)nc2n2c1sc1ccccc12 |  |  |  |  |  |  |  | Selectivity [2]: 1; IC50 [2]: 22600 nM; AUC(0-t) [3]: 90600 ng·h/mL
5 | CN1CCCN(c2nc3c(cc2F)c(=O)c(C(=O)NCc2ccncc2)c2sc4ccccc4n23)CC1 |  |  | 95 | 131 | < 30 | 6590 | 1060 | 
6 | CN1CCCN(c2nc3c(cc2F)c(=O)c(C(=O)NCc2ccccn2)c2sc4ccccc4n23)CC1 |  |  | 118 | 941 | 43 | 7770 | 1330 | 
7 | CN1CCCN(c2nc3c(cc2F)c(=O)c(C(=O)NN2CCOCC2)c2sc4ccccc4n23)CC1 |  |  | 267 | 359 | 124 | 1800 | 1320 | 
8 | COCCNC(=O)c1c(=O)c2ccc(NCC(O)c3ccccc3)nc2n2c1sc1ccccc12 (stereo not shown) | 133 | 3740 |  |  |  |  |  | 
9 | CN1CCCN(c2nc3c(cc2F)c(=O)c(C(=O)N2CCOCC2)c2sc4ccccc4n23)CC1 |  |  | 110 | 352 | < 30 | 1210 | 590 | 
10 | CN1CCCCC1CNC(=O)c1c(=O)c2ccc(NCC(O)c3ccccc3)nc2n2c1sc1ccccc12 (stereo not shown) | 267 | 633 |  |  |  |  |  | 
11 | O=C(NCC1CC1)c1c(=O)c2ccc(NCC(O)c3ccccc3)nc2n2c1sc1ccccc12 (stereo not shown) | > 10000 | 6080 |  |  |  |  |  | IC50 [1, 5]: > 10000 nM; IC50 [1, 6]: 5030 nM
12 | CN1CCCN(c2nc3c(cc2F)c(=O)c(C(=O)NCc2cccnc2)c2sc4ccccc4n23)CC1 |  |  | 32 | 133 | < 30 | 2480 | 356 | 
13 | CN1CCCN(c2nc3c(cc2F)c(=O)c(C(=O)NCCCO)c2sc4ccccc4n23)CC1 |  |  | 51 | < 120 | 32 | 2640 | 571 | 
14 | CN1CCN(C(=O)c2c(=O)c3ccc(NCC(O)c4ccccc4)nc3n3c2sc2ccccc23)CC1 (stereo not shown) | 2510 | 6670 |  |  |  |  |  | IC50 [1, 5]: 3130 nM; IC50 [1, 6]: 543 nM
